Experiment [1] deals with T1, GluN1-GluN2B (Rattus norvegicus, UniProt P35439+Q00960).
T1 construct: GFP (N); expressed in transfected cells; host or cells: HEK-293T
Type of experiment: cell-based.

For experiment [2], the target named is T1, GluN1-GluN2B. Type of experiment: cell-based. This is another data set of the same source.
The target in another experiment is T2, GluN1/GluN2A-V820I (Rattus norvegicus, UniProt P35439+Q00959, V820I).
T2 construct: GFP (N); expressed in transfected cells; host or cells: HEK-293T
Type of experiment: cell-based.

The target in experiment [3] is T3, GluN1-GluN2A (Rattus norvegicus, UniProt P35439+Q00959).
T3 construct: GFP (N); expressed in transfected cells; host or cells: HEK-293T (single-channel: HEK293)
In words: cell-based.

Another experiment has as its target T4, GluN1-GluN2D (Rattus norvegicus, UniProt P35439+Q62645).
T4 construct: HA (N); expressed in transfected cells; host or cells: HEK-293T
The format is cell-based.

The target in experiment [4] is T3, GluN1-GluN2A. Type of experiment: cell-based.
Another experiment deals with T5, GluN1-GluN2C (Rattus norvegicus, UniProt P35439+Q00961).
T5 construct: HA (N); expressed in transfected cells; host or cells: HEK-293T
The format is cell-based.

Experiment [5] addresses T3, GluN1-GluN2A. Type of experiment: cell-based. The source holds these as a separate data set.
Experiment [6] has as its target T1, GluN1-GluN2B. Description: cell-based.

Where “and” joins values, the source holds several entries; their conditions need not be identical. Identical values can stand only once. No end group written: not given here.

Broadly, the EC50 is the concentration at which the effect is half-maximal. Higher therefore signals weaker potency.

T3 sequence (Q00959 23-1464, other chains not shown): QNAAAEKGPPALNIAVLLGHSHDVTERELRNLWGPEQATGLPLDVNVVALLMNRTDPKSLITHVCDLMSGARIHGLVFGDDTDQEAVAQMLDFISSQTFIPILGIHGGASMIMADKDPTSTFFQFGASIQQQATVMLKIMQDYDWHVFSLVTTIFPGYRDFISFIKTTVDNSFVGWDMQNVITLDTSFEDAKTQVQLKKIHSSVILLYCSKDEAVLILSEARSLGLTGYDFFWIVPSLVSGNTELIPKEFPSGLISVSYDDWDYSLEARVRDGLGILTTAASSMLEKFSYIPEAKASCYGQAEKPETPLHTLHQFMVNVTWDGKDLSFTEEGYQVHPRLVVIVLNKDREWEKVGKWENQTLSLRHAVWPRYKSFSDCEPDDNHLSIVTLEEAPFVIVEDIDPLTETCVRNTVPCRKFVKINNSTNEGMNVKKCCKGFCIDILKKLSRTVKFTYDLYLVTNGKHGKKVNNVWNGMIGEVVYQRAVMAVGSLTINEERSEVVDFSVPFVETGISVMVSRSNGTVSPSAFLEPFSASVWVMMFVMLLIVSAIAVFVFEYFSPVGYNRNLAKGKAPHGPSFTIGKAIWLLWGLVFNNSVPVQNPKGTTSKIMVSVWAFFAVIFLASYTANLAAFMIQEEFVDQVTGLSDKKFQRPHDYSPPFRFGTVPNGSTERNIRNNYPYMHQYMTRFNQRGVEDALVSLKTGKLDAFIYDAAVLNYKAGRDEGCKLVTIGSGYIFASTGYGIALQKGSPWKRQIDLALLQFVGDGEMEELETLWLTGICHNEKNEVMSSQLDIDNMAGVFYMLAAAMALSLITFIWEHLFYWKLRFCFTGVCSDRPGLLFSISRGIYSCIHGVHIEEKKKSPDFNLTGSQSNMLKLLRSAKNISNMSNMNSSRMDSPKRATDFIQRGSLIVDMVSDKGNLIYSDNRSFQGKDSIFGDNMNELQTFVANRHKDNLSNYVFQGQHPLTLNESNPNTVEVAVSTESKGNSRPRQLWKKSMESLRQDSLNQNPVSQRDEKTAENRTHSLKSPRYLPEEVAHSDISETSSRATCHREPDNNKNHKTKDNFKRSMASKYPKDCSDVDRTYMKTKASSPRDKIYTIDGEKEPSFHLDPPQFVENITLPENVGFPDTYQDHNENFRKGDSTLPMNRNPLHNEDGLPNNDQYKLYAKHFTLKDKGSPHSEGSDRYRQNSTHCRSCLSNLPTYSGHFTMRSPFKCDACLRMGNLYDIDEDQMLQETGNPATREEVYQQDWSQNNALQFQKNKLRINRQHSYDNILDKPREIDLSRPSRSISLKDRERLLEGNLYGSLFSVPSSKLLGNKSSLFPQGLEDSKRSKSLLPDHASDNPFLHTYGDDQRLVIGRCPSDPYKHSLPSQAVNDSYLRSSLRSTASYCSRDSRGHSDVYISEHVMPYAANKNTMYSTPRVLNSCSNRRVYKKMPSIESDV
T1 sequence (Q00960 27-1482, other chains not shown): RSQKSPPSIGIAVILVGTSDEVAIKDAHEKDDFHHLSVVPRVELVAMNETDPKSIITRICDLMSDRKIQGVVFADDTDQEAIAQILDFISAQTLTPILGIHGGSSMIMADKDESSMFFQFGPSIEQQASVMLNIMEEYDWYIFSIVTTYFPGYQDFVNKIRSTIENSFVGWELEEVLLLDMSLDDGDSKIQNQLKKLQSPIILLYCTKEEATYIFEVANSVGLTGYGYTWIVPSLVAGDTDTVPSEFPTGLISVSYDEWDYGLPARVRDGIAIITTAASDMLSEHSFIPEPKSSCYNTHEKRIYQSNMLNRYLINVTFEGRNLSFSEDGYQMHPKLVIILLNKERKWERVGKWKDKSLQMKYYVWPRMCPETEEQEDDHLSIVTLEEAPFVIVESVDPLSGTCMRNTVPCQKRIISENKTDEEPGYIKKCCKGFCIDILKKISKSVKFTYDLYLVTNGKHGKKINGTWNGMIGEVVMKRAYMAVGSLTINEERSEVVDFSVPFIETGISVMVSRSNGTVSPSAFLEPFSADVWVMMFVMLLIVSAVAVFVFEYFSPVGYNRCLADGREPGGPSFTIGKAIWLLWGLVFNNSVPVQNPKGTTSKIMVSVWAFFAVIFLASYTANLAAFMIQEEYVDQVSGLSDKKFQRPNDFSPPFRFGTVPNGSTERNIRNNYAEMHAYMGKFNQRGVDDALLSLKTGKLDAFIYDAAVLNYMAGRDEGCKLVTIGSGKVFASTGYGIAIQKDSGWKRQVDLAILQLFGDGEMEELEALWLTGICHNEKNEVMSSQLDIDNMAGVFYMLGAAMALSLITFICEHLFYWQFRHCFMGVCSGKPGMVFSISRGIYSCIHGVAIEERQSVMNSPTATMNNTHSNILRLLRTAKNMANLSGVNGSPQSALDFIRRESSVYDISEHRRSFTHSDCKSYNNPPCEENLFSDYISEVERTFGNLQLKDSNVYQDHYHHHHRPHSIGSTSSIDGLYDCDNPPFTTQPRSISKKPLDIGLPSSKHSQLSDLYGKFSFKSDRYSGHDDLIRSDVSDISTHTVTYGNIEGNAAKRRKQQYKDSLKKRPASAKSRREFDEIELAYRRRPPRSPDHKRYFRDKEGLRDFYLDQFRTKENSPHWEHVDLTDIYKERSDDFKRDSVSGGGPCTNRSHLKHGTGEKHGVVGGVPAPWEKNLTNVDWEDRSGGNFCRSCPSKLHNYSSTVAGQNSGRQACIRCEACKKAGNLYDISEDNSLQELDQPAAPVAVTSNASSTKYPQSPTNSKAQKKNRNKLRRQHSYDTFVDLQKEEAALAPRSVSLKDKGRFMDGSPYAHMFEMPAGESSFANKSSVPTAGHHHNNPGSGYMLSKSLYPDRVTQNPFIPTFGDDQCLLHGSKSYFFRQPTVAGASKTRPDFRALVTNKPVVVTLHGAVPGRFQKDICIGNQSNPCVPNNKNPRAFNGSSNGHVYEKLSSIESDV
T5 sequence (Q00961 20-1237, other chains not shown): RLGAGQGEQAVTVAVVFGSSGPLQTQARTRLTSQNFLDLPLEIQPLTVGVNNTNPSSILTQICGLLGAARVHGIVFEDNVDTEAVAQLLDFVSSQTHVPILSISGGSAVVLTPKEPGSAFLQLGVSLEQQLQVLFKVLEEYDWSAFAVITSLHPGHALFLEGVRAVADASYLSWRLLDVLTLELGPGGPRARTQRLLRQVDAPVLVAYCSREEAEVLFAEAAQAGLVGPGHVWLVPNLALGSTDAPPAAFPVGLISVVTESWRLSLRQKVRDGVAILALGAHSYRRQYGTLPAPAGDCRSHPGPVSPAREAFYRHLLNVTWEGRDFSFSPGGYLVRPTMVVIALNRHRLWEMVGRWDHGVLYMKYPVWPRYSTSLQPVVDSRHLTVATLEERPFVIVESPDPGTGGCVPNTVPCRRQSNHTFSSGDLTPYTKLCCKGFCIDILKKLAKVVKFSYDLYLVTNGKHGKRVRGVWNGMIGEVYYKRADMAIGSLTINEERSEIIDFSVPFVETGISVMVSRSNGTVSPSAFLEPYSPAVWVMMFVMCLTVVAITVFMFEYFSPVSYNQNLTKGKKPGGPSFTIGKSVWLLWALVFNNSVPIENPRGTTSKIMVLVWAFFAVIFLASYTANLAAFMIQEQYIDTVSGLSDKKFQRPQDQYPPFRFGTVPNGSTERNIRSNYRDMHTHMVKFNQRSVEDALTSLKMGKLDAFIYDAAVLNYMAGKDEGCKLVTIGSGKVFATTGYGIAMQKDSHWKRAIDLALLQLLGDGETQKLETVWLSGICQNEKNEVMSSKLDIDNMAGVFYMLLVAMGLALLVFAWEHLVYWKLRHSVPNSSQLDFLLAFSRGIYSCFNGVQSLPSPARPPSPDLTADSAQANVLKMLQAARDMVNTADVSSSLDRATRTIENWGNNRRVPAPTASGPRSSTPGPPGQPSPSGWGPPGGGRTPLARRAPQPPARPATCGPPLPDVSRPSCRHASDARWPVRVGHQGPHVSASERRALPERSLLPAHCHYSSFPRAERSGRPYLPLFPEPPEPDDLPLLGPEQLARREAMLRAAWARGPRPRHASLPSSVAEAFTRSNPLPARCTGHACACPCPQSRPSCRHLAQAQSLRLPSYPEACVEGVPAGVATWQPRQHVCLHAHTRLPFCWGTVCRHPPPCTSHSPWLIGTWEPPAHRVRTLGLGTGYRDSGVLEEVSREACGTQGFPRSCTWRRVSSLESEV

With KLGMRSELQIDNDQDAD [EAR-20], the peak current potentiation on GluN1-GluN2B [1] is 102.6% ± 24.02%; on GluN1-GluN2D, 4.97% ± 2.63%; on GluN1-GluN2C, −8.04% ± 7.48%; on GluN1-GluN2A [5], 15.68% ± 6.19% and 15.68% ± 6.16%. Further, the “potentiation by EAR-20” value on GluN1-GluN2B [1] is reported as 136.8% ± 19.6%. For the same sequence, the steady-state current potentiation at GluN1-GluN2B [1] was 137.9% ± 21.0% and 137.9% and 143.7% ± 26.8%; at GluN1-GluN2D, 102.45% ± 11.1%; on GluN1-GluN2C it was 23.31% ± 7.6% and ~25%; on GluN1-GluN2A [5], 154.3% ± 19.0% and 154.3% and 153.3% ± 19.9%. For the same sequence, the “maximal agonist activity relative to glutamate plus glycine” value on GluN1-GluN2B [2] is listed as 12.18% ± 6.9%. Moreover, the “response in the presence of glutamate, % of glutamate plus glycine response” value on GluN1-GluN2B [2] is reported as 38.33% ± 17.1%. Moreover, the “response in the presence of glycine, % of glutamate plus glycine response” value on GluN1-GluN2B [2] is given as 43.22% ± 18.1%. Moreover, the steady-state potentiation on GluN1/GluN2A-V820I is listed as 146.6% ± 37.8%. Further, the values for the half-maximal effective concentration (EC50) on GluN1-GluN2A [3] and at GluN1-GluN2B [6] were 88.7 µM and 42.2 µM, respectively. Further, the “agonistic activity relative to glutamate plus glycine” value on GluN1-GluN2A [4] was 13.31% ± 6.5%.

(Values after article PMC12678337, “EAR-20 peptide, a novel NMDA receptor positive allosteric modulator” (Frontiers in Pharmacology, 2025).)
